Patent US20260297085A1, “1 H-PYRROLO[2,3-B]PYRIDIN-4-YL]-2-OXOPYRROLIDINE-3-CARBONITRILE DERIVATIVES AS TYROSINE KINASE 2 (TYK2) INHIBITORS FOR THE TREATMENT OF INFLAMMATORY DISEASES” (BIOGEN MA INC., priority 2023, published 2026)
Where a name gives a salt, the structure may show the parent alone.

Assays:
[1] = target: T1, human JAK3 kinase domain (JH1) (Homo sapiens, UniProt P52333); test: JH1 biochemical assay for JAK3 (ADP-Glo kinase assay, recombinant JH1 catalytic domain, JAK3-974 peptide, 4 μM ATP)
T1 construct: recombinantly generated catalytic kinase (also known as JH1) domain of human JAK1, JAK2, JAK3 and TYK2
Summary of the method: (§1)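 Kinase 4 nM JAK1 / 0.2 nM JAK2 / 0.3 nM JAK3 / 2 nM TYK2; 50 μM peptide; 100 min. Unused ATP depleted, ADP→ATP, luciferase luminescence. 11-pt 3-fold series from 10 or 1 μM; normalized, 4PL fit → IC50.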

[2] = target: T2, human JAK1 kinase domain (JH1) (Homo sapiens, UniProt P23458); test: JH1 biochemical assay for JAK1 (ADP-Glo kinase assay, recombinant JH1 catalytic domain, JAK3-342 peptide, 35 μM ATP)
T2 construct: recombinantly generated catalytic kinase (also known as JH1) domain of human JAK1, JAK2, JAK3 and TYK2
Summary of the method: as §1

[3] = target: JAK2 kinase activity on STAT5 in TF1 cells (Homo sapiens, UniProt O60674); test: pSTAT5 cell assay (MSD; TF1 cells, 30 ng/mL IL-3 stimulation); format: cell-based; details: 30 ng/mL IL-3, 15 minutes
Summary of the method: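 Serum-starved TF1 cells with native JAK2/STAT5 were pretreated 1 h with compound (10-point four-fold dilutions from 10 μM), then stimulated 15 min with 30 ng/mL IL-3. pSTAT5 in lysates quantified by MSD immunoassay; normalized percent activity fitted to a 4-parameter logistic curve for IC50.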

[4] = target: T3, human JAK2 kinase domain (JH1) (Homo sapiens, UniProt O60674); test: JH1 biochemical assay for JAK2 (ADP-Glo kinase assay, recombinant JH1 catalytic domain, JAK3-974 peptide, 15 μM ATP)
T3 construct: recombinantly generated catalytic kinase (also known as JH1) domain of human JAK1, JAK2, JAK3 and TYK2
Summary of the method: as §1

[5] = target: Tyk2 kinase activity on STAT4 in NK92 cells (Homo sapiens, UniProt P29597); test: pSTAT4 cell assay (MSD; NK92 cells, 30 ng/mL IL2 stimulation); format: cell-based; details: 30 ng/mL IL2, 15 minutes
Summary of the method: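 Serum-starved NK92 cells, which natively express Tyk2 and STAT4, were pretreated for 1 h with a 10-point 4-fold dilution series from 10 μM. They were then stimulated with 30 ng/mL IL2 for 15 min. Phospho-STAT in lysates was quantified by MSD with anti-STAT4 antibodies, and IC50 was obtained from 4-parameter logistic fits.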

[6] = target: T4, human TYK2 kinase domain (JH1) (Homo sapiens, UniProt P29597); test: JH1 biochemical assay for TYK2 (ADP-Glo kinase assay, recombinant JH1 catalytic domain, JAK3-974 peptide, 10 μM ATP)
T4 construct: recombinantly generated catalytic kinase (also known as JH1) domain of human JAK1, JAK2, JAK3 and TYK2
T4 sequence (P29597 897-1176 limits assumed): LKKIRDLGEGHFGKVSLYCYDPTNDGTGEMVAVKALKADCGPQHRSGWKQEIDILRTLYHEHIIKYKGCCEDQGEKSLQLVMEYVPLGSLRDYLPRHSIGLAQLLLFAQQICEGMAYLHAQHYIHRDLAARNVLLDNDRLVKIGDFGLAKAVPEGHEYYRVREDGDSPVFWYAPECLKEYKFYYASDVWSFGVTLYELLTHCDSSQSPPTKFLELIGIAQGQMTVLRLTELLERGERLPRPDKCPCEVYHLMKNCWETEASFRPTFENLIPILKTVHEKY
Summary of the method: as §1

[7] = target: JAK1 kinase activity on STAT3 in TF1 cells (Homo sapiens, UniProt P23458); test: pSTAT3 cell assay (MSD; TF1 cells, 30 ng/mL IL-6 stimulation); format: cell-based; details: 30 ng/mL IL-6, 15 minutes
Summary of the method: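 Readout is pSTAT3 in lysates, quantified on an MSD plate assay using anti-STAT3 antibodies. Before lysis, TF1 cells had been serum-starved, exposed to compound for 1 hour across ten four-fold dilutions starting at 10 μM, and given IL-6 for 15 minutes.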

T3 sequence (O60674 849-1124 limits assumed): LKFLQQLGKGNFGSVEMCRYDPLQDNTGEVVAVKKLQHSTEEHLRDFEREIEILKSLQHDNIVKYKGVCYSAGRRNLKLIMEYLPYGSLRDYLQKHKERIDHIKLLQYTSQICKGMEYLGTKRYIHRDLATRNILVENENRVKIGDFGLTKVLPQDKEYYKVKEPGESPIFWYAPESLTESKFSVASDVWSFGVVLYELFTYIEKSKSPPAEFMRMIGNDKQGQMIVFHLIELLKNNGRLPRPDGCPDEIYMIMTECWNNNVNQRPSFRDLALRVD
T1 sequence (P52333 822-1111 limits assumed): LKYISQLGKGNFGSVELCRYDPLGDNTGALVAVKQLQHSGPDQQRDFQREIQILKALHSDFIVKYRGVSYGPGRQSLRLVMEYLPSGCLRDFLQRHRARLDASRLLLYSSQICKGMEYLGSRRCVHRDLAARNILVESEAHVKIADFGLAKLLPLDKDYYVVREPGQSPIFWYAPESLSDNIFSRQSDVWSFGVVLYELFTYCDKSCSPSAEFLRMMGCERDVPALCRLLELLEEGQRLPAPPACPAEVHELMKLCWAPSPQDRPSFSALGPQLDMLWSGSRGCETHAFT
T2 sequence (P23458 875-1153 limits assumed): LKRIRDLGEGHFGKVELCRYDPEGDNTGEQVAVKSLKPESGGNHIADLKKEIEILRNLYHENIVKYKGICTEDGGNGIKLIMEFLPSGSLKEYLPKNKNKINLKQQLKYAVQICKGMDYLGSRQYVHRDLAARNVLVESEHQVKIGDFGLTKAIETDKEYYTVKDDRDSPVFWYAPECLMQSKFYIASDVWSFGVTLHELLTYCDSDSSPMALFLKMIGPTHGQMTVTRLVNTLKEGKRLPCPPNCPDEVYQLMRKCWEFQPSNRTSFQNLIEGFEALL
Sequence of JAK2 kinase activity on STAT5 in TF1 cells (O60674 whole entry): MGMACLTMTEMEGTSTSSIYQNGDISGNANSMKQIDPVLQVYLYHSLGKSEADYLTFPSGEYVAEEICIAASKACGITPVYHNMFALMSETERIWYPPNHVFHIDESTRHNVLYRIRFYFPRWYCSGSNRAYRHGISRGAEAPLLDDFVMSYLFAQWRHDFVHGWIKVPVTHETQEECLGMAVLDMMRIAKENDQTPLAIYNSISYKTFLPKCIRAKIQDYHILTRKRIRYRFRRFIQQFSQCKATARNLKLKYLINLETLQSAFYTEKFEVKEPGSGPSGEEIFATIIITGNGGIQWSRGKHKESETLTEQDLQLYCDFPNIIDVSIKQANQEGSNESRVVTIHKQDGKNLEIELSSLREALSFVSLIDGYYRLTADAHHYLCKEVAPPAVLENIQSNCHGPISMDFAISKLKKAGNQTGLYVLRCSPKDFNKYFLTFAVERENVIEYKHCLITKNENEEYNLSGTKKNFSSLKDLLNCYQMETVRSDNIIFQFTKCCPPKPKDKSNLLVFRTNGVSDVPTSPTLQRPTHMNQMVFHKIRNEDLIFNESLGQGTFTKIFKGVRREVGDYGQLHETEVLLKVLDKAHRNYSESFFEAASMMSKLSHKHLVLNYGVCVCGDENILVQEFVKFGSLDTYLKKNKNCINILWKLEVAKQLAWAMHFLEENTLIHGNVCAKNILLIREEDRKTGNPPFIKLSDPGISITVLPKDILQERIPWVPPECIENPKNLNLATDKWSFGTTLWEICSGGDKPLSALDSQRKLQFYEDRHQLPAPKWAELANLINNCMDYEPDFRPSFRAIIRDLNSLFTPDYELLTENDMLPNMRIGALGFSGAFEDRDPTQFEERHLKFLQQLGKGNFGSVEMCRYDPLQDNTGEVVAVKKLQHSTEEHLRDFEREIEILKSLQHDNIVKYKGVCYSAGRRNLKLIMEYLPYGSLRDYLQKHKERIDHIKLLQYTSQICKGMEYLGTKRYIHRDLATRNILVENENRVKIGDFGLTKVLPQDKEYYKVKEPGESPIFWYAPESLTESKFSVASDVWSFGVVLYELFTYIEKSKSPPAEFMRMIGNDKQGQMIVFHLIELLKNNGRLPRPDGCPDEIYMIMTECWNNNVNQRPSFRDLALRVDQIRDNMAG
Sequence of Tyk2 kinase activity on STAT4 in NK92 cells (P29597 whole entry): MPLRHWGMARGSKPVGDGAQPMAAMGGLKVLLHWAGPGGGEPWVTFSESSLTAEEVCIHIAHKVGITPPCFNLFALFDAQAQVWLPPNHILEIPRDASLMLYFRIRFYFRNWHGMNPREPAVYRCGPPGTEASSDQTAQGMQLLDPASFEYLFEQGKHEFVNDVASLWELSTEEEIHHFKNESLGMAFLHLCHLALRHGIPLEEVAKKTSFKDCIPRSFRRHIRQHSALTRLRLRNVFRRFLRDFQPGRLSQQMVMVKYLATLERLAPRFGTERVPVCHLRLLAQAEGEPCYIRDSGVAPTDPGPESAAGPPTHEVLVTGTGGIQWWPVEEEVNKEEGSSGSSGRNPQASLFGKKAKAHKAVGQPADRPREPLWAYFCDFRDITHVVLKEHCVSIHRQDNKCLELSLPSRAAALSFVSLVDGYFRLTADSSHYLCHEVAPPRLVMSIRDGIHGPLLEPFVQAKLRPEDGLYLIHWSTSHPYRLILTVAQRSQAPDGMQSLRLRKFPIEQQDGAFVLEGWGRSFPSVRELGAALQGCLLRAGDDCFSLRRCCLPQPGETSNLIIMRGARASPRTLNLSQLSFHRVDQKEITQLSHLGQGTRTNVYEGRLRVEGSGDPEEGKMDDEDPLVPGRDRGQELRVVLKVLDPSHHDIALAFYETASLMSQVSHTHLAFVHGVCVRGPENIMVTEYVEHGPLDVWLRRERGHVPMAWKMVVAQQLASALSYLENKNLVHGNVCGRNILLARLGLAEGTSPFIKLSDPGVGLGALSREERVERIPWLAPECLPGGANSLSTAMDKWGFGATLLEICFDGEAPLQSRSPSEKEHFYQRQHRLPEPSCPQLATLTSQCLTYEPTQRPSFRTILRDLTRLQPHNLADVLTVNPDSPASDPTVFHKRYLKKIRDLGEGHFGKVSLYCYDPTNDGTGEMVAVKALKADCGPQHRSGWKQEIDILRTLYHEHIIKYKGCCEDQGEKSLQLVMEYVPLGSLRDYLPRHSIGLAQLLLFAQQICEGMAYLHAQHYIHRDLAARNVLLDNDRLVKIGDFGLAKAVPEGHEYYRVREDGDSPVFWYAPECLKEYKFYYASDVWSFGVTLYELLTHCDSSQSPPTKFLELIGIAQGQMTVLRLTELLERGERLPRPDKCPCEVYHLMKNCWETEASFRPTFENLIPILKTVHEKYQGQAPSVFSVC
Sequence of JAK1 kinase activity on STAT3 in TF1 cells (P23458 whole entry): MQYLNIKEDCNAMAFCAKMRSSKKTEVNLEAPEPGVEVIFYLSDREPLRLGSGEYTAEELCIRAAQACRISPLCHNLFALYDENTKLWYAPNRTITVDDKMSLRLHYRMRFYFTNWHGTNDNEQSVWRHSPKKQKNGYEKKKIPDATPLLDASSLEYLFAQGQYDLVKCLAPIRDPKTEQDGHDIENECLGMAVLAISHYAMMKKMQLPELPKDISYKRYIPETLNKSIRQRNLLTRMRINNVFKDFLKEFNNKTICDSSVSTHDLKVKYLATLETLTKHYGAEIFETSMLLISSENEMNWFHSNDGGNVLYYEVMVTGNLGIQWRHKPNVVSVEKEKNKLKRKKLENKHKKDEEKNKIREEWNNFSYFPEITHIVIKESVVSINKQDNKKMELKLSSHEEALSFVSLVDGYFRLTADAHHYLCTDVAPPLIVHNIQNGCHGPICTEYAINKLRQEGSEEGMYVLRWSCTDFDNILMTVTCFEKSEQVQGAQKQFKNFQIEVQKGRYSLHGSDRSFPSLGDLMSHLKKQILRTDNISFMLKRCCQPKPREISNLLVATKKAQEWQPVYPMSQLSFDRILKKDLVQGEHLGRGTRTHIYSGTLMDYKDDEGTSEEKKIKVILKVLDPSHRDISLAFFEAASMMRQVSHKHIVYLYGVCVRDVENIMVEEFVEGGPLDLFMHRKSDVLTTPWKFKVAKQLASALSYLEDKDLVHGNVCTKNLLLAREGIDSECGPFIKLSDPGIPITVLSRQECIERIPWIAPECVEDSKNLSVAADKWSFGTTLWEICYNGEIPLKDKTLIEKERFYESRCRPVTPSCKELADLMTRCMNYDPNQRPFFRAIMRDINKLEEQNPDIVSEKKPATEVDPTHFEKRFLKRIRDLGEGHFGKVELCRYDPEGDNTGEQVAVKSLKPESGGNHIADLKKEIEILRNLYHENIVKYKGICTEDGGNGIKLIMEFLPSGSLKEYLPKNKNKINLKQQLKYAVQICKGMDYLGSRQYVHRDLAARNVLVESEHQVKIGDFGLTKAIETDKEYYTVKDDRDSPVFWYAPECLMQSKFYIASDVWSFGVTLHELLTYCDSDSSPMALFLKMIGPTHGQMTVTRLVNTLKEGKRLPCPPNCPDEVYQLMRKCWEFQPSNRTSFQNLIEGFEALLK

IC50 ([1]; JAK3 JH1, ADP-Glo) [nM] | IC50 ([2]; JAK1 JH1, ADP-Glo) [nM] | IC50 [3] [nM] | IC50 ([4]; JAK2 JH1, ADP-Glo) [nM] | IC50 [5] [nM] | IC50 ([6]; TYK2 JH1, ADP-Glo) [nM] | IC50 [7] [nM] | IC50 ([1]; JH1 kinase domain, ADP-Glo) [nM] | IC50 ([2]; JH1 kinase domain, ADP-Glo) [nM] | IC50 ([4]; JH1 kinase domain, ADP-Glo) [nM] | IC50 ([6]; JH1 kinase domain, ADP-Glo) [nM] | Structure (SMILES)
< 100 | < 100 | 1000 to 5000 | 100 to 1000 | 50 to 100 | < 5 | 100 to 1000 |  |  |  |  | C[C@@H]1CN(c2nc(-c3ccc(=O)n(C)c3)cn3nccc23)C(=O)[C@]1(C#N)C1CC1 [Example 245, (3R,4S)-3-cyclopropyl-4-methyl-1-(6-(1-methyl-6-oxo-1,6-dihydropyridin-3-yl)pyrazolo[1,5-a]pyrazin-4-yl)-2-oxopyrrolidine-3-carbonitrile]
< 100 | < 100 | 1000 to 5000 | 100 to 1000 | 5 to 20 | < 5 | 100 to 1000 |  |  |  |  | C[C@@H]1CN(c2nc(-c3cnc4[nH]ccc4c3)cn3nccc23)C(=O)[C@]1(C#N)C1CC1 [Example 230, (3R,4S)-1-(6-(1H-pyrrolo[2,3-b]pyridin-5-yl)pyrazolo[1,5-a]pyrazin-4-yl)-3-cyclopropyl-4-methyl-2-oxopyrrolidine-3-carbonitrile]
< 100 | < 100 | 1000 to 5000 | 100 to 1000 | 50 to 100 | < 5 | 100 to 1000 |  |  |  |  | Cc1ncc(-c2cn3nccc3c(N3C[C@@H](C)[C@@](C#N)(C4CC4)C3=O)n2)s1 [Example 239, (3R,4S)-3-cyclopropyl-4-methyl-1-(6-(2-methylthiazol-5-yl)pyrazolo[1,5-a]pyrazin-4-yl)-2-oxopyrrolidine-3-carbonitrile]
 |  | 5000 to 10000 |  | > 100 |  | 1000 to 5000 | 100 to 1000 | 100 to 1000 | 100 to 1000 | 5 to 20 | Cc1nc(-c2cn3nccc3c(N3C[C@@H](C)[C@@](C#N)(C4CC4)C3=O)n2)cs1 [Example 214, (3R,4S)-3-cyclopropyl-4-methyl-1-(6-(2-methylthiazol-4-yl)pyrazolo[1,5-a]pyrazin-4-yl)-2-oxopyrrolidine-3-carbonitrile]
 |  | > 10000 |  | > 100 |  | 1000 to 5000 | 100 to 1000 | 100 to 1000 | 100 to 1000 | 5 to 20 | C[C@@H]1CN(c2ccnn3cc(-c4cnc(C(F)F)s4)cc23)C(=O)[C@]1(C#N)C1CC1 [Example 101, (3R,4S)-3-cyclopropyl-1-(6-(2-(difluoromethyl)thiazol-5-yl)pyrrolo[1,2-b]pyridazin-4-yl)-4-methyl-2-oxopyrrolidine-3-carbonitrile trifluoroacetate]
 |  | 5000 to 10000 |  | 50 to 100 |  | 1000 to 5000 | 100 to 1000 | 100 to 1000 | 100 to 1000 | 5 to 20 | CC[C@@H]1CN(c2ccnn3cc(-c4cnn(C)c4)cc23)C(=O)[C@]1(C#N)C1CC1 [Example 23, (3R,4S)-3-cyclopropyl-4-ethyl-1-(6-(1-methyl-1H-pyrazol-4-yl)pyrrolo[1,2-b]pyridazin-4-yl)-2-oxopyrrolidine-3-carbonitrile]
 |  | 1000 to 5000 |  | 50 to 100 |  | 1000 to 5000 | < 100 | < 100 | 100 to 1000 | < 5 | [2H]C([2H])([2H])n1cc(-c2cn3ncc(F)c3c(N3C[C@@H](C)[C@@](C#N)(C4CC4)C3=O)n2)cn1 [Example 211, (3R,4S)-3-cyclopropyl-1-(3-fluoro-6-(1-(methyl-d3)-1H-pyrazol-4-yl)pyrazolo[1,5-a]pyrazin-4-yl)-4-methyl-2-oxopyrrolidine-3-carbonitrile]
 |  | > 10000 |  | > 100 |  | > 10000 | 1000 to 5000 | 100 to 1000 | 1000 to 5000 | 20 to 50 | Cn1cc(-c2cc3c(N4C[C@@H](C(F)F)[C@@](C#N)(C5CC5)C4=O)ccnn3c2)cn1 (racemic) [Example 153, rac-(3R,4S)-3-cyclopropyl-4-(difluoromethyl)-1-(6-(1-methyl-1H-pyrazol-4-yl)pyrrolo[1,2-b]pyridazin-4-yl)-2-oxopyrrolidine-3-carbonitrile]
 |  | 5000 to 10000 |  | > 100 |  | 1000 to 5000 | < 100 | < 100 | 100 to 1000 | < 5 | C[C@@H]1CN(c2nc(-c3ccc(=O)n(C(F)F)c3)cn3nccc23)C(=O)[C@]1(C#N)C1CC1 [Example 210, (3R,4S)-3-cyclopropyl-1-(6-(1-(difluoromethyl)-6-oxo-1,6-dihydropyridin-3-yl)pyrazolo[1,5-a]pyrazin-4-yl)-4-methyl-2-oxopyrrolidine-3-carbonitrile]
100 to 1000 | 100 to 1000 | > 10000 | 100 to 1000 | > 100 | 5 to 20 | 1000 to 5000 |  |  |  |  | CNC(=O)c1cc(-c2cn3nccc3c(N3C[C@@H](C)[C@@](C#N)(C4CC4)C3=O)n2)ccn1 [Example 252, 4-(4-((3R,4S)-3-cyano-3-cyclopropyl-4-methyl-2-oxopyrrolidin-1-yl)pyrazolo[1,5-a]pyrazin-6-yl)-N-methylpicolinamide trifluoroacetate]
 |  | > 10000 |  | > 100 |  | > 10000 | > 10000 | 1000 to 5000 | 5000 to 10000 | 50 to 100 | C[C@@H]1CN(c2ccnn3c(F)c(-c4cnn(C)c4)cc23)C(=O)[C@]1(C#N)C1CC1 [Example 28, (3R,4S)-3-cyclopropyl-1-(7-fluoro-6-(1-methyl-1H-pyrazol-4-yl)pyrrolo[1,2-b]pyridazin-4-yl)-4-methyl-2-oxopyrrolidine-3-carbonitrile]
 |  | > 10000 |  | > 100 |  | 1000 to 5000 | 100 to 1000 | 100 to 1000 | 100 to 1000 | 5 to 20 | C[C@@H]1CN(c2ccnn3cc(-c4cccc(C(F)F)n4)cc23)C(=O)[C@]1(C#N)C1CC1 [Example 135, (3R,4S)-3-cyclopropyl-1-(6-(6-(difluoromethyl)pyridin-2-yl)pyrrolo[1,2-b]pyridazin-4-yl)-4-methyl-2-oxopyrrolidine-3-carbonitrile trifluoroacetate]
 |  | 1000 to 5000 |  | > 100 |  | 100 to 1000 | < 100 | < 100 | < 100 | < 5 | C[C@@H]1CN(c2nc(-c3cnn(C4CCCC4)c3)cn3ncc(F)c23)C(=O)[C@]1(C#N)C1CC1 [Example 217, (3R,4S)-1-(6-(1-cyclopentyl-1H-pyrazol-4-yl)-3-fluoropyrazolo[1,5-a]pyrazin-4-yl)-3-cyclopropyl-4-methyl-2-oxopyrrolidine-3-carbonitrile]
 |  | > 10000 |  | > 100 |  | > 10000 | 1000 to 5000 | 1000 to 5000 | 1000 to 5000 | 5 to 20 | COc1ncccc1-c1cc2c(N3C[C@@H](C)[C@@](C#N)(C4CC4)C3=O)ccnn2c1 [Example 96, (3R,4S)-3-cyclopropyl-1-(6-(2-methoxypyridin-3-yl)pyrrolo[1,2-b]pyridazin-4-yl)-4-methyl-2-oxopyrrolidine-3-carbonitrile]
 |  | 1000 to 5000 |  | 5 to 20 |  | 1000 to 5000 | 100 to 1000 | < 100 | 100 to 1000 | < 5 | C[C@@H]1CN(c2ccnn3cc(-c4cnn(C5CC5(F)F)c4)cc23)C(=O)[C@]1(C#N)C1CC1 (mixture of isomers) [Example 154, (3R,4S)-3-cyclopropyl-1-(6-(1-(2,2-difluorocyclopropyl)-1H-pyrazol-4-yl)pyrrolo[1,2-b]pyridazin-4-yl)-4-methyl-2-oxopyrrolidine-3-carbonitrile]
 |  | 5000 to 10000 |  | 50 to 100 |  | 1000 to 5000 | 100 to 1000 | 100 to 1000 | 100 to 1000 | < 5 | C[C@@H]1CN(c2ccnn3cc(-c4cnn(-c5cccnc5)c4)cc23)C(=O)[C@]1(C#N)C1CC1 [Example 159, (3R,4S)-3-cyclopropyl-4-methyl-2-oxo-1-(6-(1-(pyridin-3-yl)-1H-pyrazol-4-yl)pyrrolo[1,2-b]pyridazin-4-yl)pyrrolidine-3-carbonitrile]
